According to patent US20170049843A1, “Hepatocyte Growth Factor Mimics as Therapeutic Agents” (WASHINGTON STATE UNIVERSITY, priority 2011, published 2017):
Values joined by “and” are separate entries in the source; they are usually repeats but may differ in a detail not shown here. Identical values can stand only once. Where a SMILES comes first, the peptide text is derived from it. [ ]: non-standard residue; d: D form. The star is where a group is joined. Nle = CCCC[C@H](N)C(=O)O; Hexanoyl = CCCCCC(=O)*; Ahx = NCCCCCC(=O)O

How the values were obtained:
Assay type in all cases: cell-based, rat
[1] = tested on: hippocampal neurons; assay: Spinogenesis in mRFP-β-actin transfected dissociated hippocampal neurons; settings: 5 days; for spine numbers per 50 μm dendrite length: biologically active doses, printed as 10^−13 M, control 17.4
Method: Hippocampal neurons ([…] cells per square cm) were cultured from P1 Sprague Dawley rats on plates coated with poly-L-lysine from Sigma (St. Louis, Mo.; molecular weight 300,000). Hippocampal neurons were maintained in Neurobasal A media from Invitrogen (Carlsbad, Calif.) supplemented with B27 from Invitrogen, 0.5 mM L-glutamine, and […] cytosine-D-arabinofuranoside from Sigma added at 2 days in vitro. Hippocampal neurons were then cultured a further 3-7 days, at which time they were either transfected or treated with various pharmacological reagents as described in (Wayman, Davare et al. 2008).
(§1) Neurons were transfected with mRFP-β-actin on day in vitro 6 (DIV6) using LipofectAMINE™ 2000 (Invitrogen) according to the manufacturer's protocol. This protocol yielded the desired 3-5% transfection efficiency thus enabling the visualization of individual neurons. Higher efficiencies obscured the dendritic arbor of individual neurons. Expression of fluorescently tagged actin allowed clear visualization of dendritic spines, as dendritic spines are enriched in actin. On DIV7 the cells were treated with vehicle (H20) or peptides (as described in the text) added to media. On DIV12 the neurons were fixed (4% paraformaldehyde, 3% sucrose, 60 mM PIPES, 25 mM HEPES, 5 mM EGTA, 1 mM MgCl2, pH 7.4) for 20 min at room temperature and mounted. Slides were dried for at least 20 hours at 4° C. and fluorescent images were obtained with Slidebook 4.2 Digital Microscopy Software driving an Olympus IX81 inverted confocal microscope with a 60× oil immersion lens, NA 1.4 and resolution 0.280 μm Dendritic spine density was measured on primary and secondary dendrites at a distance of at least 150 μm from the soma. Five 50 μm long segments of dendrite from at least 10 neurons per data point were analyzed for each data point reported. Each experiment was repeated at least three times using independent culture preparations. Dendrite length was determined using the National Institutes of Health's Image J 1.41o program (NIH, Bethesda, Md.) and the neurite tracing program Neuron J (Meijering, Jacob et al. 2004) Spines were manually counted.
Hippocampal neurons (2×10^5 cells per square centimeter) were cultured from P1-2 Sprague Dawley rats on plates coated with poly-L-lysine from Sigma (St. Louis, Mo.; molecular weight 300,000). Hippocampal neurons were maintained in Neurobasal A media from Invitrogen (Carlsbad, Calif.) supplemented with B27 from Invitrogen, 0.5 mM L-glutamine, and […] cytosine-D-arabinofuranoside from Sigma added at 2 days in vitro. Hippocampal neurons were then cultured a further 3-7 days, at which time they were either transfected or treated with various pharmacological reagents as described in the text or figure legends.

[2] = tested on: hippocampal neurons; assay: Whole-cell recordings of mEPSCs in dissociated hippocampal neurons; set-up: mean mEPSC frequency: unit not given beside the values; settings: 5 days
[3] = tested on: CA1 hippocampal neurons; assay: Spinogenesis in organotypic hippocampal slice cultures (CA1 neurons); settings: for spines per 50 μm dendrite length, CA1 neurons: 10-12 M, 2 day treatment, control 7; for mean spine numbers per 50 μm dendrite length, CA1 neurons: 10^−12 M Dihexa or 10 ng/ml HGF, 48 hours, control 6.1
Method: (§2) Hippocampi from P4 Sprague Dawley rats were cultured as previously described (Wayman, Impey et al. 2006). Briefly, 400 μm slices were cultured on (Milipore, Billerica, Mass.) for 3 days after which they were biolistically transfected with tomato fluorescent protein (TFP) using a Helios Gen Gun (BioRad, Hercules, Calif.), according to the manufacturer's protocol, to visualize dendritic arbors. Following a 24 hour recovery period slices were stimulated with vehicle (H2O), 1 pM Nle1-AngIV or Dihexa for 2 days. Slices were fixed and mounted. Hippocampal CA1 neuronal processes were imaged and measured as described above.
as §2, with “Gene” for “Gen”, “with” for “with vehicle (H2O),”

[4] = tested on: c-Met receptor; assay: Spinogenesis after c-Met knock-down with shRNA; settings: 10 ng/ml HGF or 10^−12 M analog
Text: as §1
A target sequence for c-Met was designed using RNAi central design program (see the website located at cancan.cshl.edu/). […]. The shRNA was transfected into cells using the lipofectamine method described above. Verification of receptor knockdown was done by creating a c-Met-6-Myc tagged gene product using the Gateway cloning system (Invitrogen). The Met protein coding sequence was cloned from rat whole brain cDNA using primers obtained from Integrated DNA Technologies, Inc. The amplified product was gel purified and a band corresponding to […] band excised and cloned into a PCAGGS-6-Myc destination vector (Gateway).
To irrefutably confirm that the AngIV analogues act via the HGF/c-met system an shRNA for c-Met was employed to knock-down the receptor. Dissociated hippocampal neurons were transfected with mRFP-β-actin and shMet RNA and receptor knock-down was allowed to take place for 48 hours prior to stimulating with 0.5 μg (per well) HGF (10 ng/ml), Dihexa or Nle1-AngIV (both at 10^−12 M). Longer exposure appeared to be detrimental or toxic to the neurons. Effective c-Met receptor knock-down was verified by transfecting human embryonic kidney (HEK) cells with (0.1 μg) 6-Myc-tagged c-Met, (0.1 μg)shMet or mRFP-β-actin alone. Successful knockdown was confirmed by immunoblotting for Myc tagged c-met using an anti-Myc antibody (FIG. 19).

[5] = 10^−12 M Dihexa or 10 ng/ml HGF, control 3.55±0.60
[6] = Hinge 10^−12 M, HGF 10 ng/ml, Dihexa 10^−12 M, alone or combined, vehicle 5.31±0.35
[7] = neurons transfected with mRFP-β-actin alone, 48 hours, control 13.2
[8] = neurons transfected with mRFP-β-actin and shMet, control 13.5

Row | Compound | spine numbers per 50 μm dendrite length [1] | mean mEPSC frequency [2, 5] | mean mEPSC frequency [2, 6] | spines per 50 μm dendrite length, CA1 neurons [3] | mean spine numbers per 50 μm dendrite length, CA1 neurons [3] | mean spine numbers per 50 μm dendrite length [4, 7] | mean spine numbers per 50 μm dendrite length [4, 8] | mean frequency of AMPA-mediated mEPSCs ([2]; 10-12 M, vehicle 3.06±0.23 Hz) [Hz] | mean spine numbers per 50 μm dendrite length ([1]; HGF 5 ng/ml) | mean spine numbers per 50 μm dendrite length ([1]; HGF 10 ng/ml) | mean spine numbers per 50 μm dendrite length ([1]; HGF 20 ng/ml)
1 | CCCCCC(=O)N[C@@H](Cc1ccc(O)cc1)C(=O)N[C@H](C(=O)NCCCCCC(N)=O)[C@@H](C)CC [Dihexa, N-hexanoic-Tyr-Ile-(6)-aminohexanoic amide] (Hexanoyl-Tyr-Ile-[Ahx]-NH2) | 26.4 | 6.75±0.99 | 8.25±0.56 | 11 spines per 50 μm dendrite length | 15.0 | 21.8 | 12.0 | – | – | – | –
2 | CCCC[C@H](N)C(=O)N[C@@H](Cc1ccc(O)cc1)C(=O)N[C@H](C(=O)N[C@@H](Cc1c[nH]cn1)C(=O)N1CCC[C@H]1C(=O)N[C@@H](Cc1ccccc1)C(=O)O)[C@@H](C)CC [Nle1-AngIV, reference compound] (H-[Nle]YIHPF-OH; N-terminus and C-terminus assumed) | 29.8 | – | – | 11 spines per 50 μm dendrite length | – | 20.0 | 12.1 | 5.27±0.43 | – | – | –
3 | HGF: recombinant hepatocyte growth factor (R&D Systems), ligand of c-Met | – | 7.09±0.53 | 9.66±0.20 | – | 18.5 | 20.6 | 12.4 | – | 24.7 | 27.5 and 33 and 29.3 | 27.0
